# Source text: The term “solubility” used herein in regard to water solubility includes cases where the sample completely dissolves in deionized water to form a homogeneous mixture, and cases where the sample is completely emulsified. Here, “completely” means that no mass of the sample remains in the deionized water.
Compound,Water solubility (g),Water solubility
CC(C)CCCCCCCCCCCCCCCOC(=O)CC(O)C(=O)OCCCCCCCCCCCCCCCC(C)C (stereo not drawn) [Diisostearyl malate],20< g,
"CCCCC(CC)C(=O)OCC(C)(C)COC(=O)C(CC)CCCC (stereo not drawn) [H-208BRS, Neopentyl glycol di(2-ethylhexanoate)]",,<0.05 g
CCCCC(CC)C(=O)OCC(COC(=O)C(CC)CCCC)OC(=O)C(CC)CCCC (stereo not drawn) [PANACET 800B],,<0.05 g
"CCCCCCCCCCCC(=O)OCC(O)CO (stereo not drawn) [90-L2 Lauric acid monoglyceride, lauric acid monoglyceride]",20< g,

# Continued, values first:
Water solubility (g),Water solubility,Compound
,<0.05 g,CCCCOC(=O)CC(CC(=O)OCCCC)(OC(C)=O)C(=O)OCCCC [Tributyl O-acetylcitrate]
,<0.05 g,CCCCCCCC(=O)OCC(COC(=O)CCCCCCC)OC(=O)CCCCCCC [PANACET 800]
